Measurements: patent EP4559919A1, “TRICYCLIC-CONTAINING MACROCYCLIC COMPOUND AND USE THEREOF” (Medshine Discovery Inc., priority 2022, dated 2024)

How the values were obtained:
ALK(G1202R/L1196M) [1] = biological target: T1, ALK(G1202R/L1196M) (Homo sapiens, UniProt Q9UM73, G1202R/L1196M); assay: In vitro kinase inhibitory activity assay, Experimental method 1 (ADP-Glo); format: biochemical; settings: final ATP 50 µM, read-out: Kinase half maximal inhibitory concentration IC50 ALK^G1202R/L1196M
T1 construct: purchased Carna
T1 sequence (Q9UM73 19-1620 L1196M/G1202R): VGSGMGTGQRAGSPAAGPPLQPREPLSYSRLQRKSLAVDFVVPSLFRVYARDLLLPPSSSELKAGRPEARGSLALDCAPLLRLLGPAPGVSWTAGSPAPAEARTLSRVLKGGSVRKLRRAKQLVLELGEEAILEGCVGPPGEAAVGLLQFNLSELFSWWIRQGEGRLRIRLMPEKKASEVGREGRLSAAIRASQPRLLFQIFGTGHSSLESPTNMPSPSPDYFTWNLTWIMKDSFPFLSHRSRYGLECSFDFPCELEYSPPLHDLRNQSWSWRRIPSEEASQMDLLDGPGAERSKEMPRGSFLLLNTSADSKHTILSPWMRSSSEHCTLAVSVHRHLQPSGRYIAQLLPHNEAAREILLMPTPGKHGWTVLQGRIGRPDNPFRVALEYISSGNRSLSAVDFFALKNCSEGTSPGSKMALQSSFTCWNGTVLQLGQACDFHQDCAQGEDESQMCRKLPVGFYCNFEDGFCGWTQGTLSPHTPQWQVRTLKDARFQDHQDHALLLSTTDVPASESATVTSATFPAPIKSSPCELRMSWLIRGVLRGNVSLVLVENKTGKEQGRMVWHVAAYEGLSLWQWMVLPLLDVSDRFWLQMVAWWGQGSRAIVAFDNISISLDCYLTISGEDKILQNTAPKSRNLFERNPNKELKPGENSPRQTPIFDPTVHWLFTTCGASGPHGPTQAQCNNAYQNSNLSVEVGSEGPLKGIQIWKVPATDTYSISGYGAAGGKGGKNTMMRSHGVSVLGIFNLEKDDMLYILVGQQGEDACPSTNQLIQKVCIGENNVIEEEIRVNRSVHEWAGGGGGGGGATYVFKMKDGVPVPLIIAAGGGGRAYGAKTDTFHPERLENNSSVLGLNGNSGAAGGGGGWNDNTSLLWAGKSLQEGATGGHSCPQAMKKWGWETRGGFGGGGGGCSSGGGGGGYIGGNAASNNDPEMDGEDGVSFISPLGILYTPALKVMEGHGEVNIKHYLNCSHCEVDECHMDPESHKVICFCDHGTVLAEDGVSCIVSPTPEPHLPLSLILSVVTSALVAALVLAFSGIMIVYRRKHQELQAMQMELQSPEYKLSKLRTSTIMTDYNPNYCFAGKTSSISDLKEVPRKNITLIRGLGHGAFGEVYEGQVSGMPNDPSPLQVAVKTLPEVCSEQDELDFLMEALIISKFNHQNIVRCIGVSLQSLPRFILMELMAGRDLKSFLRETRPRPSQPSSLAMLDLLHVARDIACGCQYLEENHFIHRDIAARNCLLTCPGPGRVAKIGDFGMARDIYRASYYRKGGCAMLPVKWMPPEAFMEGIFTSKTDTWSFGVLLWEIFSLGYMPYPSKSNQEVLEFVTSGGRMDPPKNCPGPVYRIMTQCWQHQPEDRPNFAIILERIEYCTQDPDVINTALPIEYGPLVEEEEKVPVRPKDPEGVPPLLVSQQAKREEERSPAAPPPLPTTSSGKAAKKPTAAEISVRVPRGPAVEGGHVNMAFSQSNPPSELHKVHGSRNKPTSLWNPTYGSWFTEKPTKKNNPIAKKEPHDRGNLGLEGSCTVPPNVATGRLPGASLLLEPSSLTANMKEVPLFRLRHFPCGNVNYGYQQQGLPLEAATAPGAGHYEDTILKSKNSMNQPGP
Method: (§1) The kinase inhibitory activity assays of the compounds against ALK, ALK^L1196M, ALK^G1202R, ALK^G1202R/L1196M, ROS1, and TRKB were conducted at Wuhan Heyan Biotechnology Co., Ltd. or Hefei PreceDo Biotechnology Co., Ltd.
(§2) Experimental materials: ALK Active, ALK(L1196M) Active, ALK(G1202R) Active, and ALK(G1202R/L1196M) Active were purchased from Carna; SRC Substrate was purchased from SignalChem; IGF1R tide was purchased from SignalChem; ADP-Glo Kinase Assay was purchased from Promega; Kinase assay buffer III was purchased from SignalChem; and Nivo multimode plate reader (PerkinElmer).
(§3) Each concentration of the compounds was further diluted 20-fold using 1X kinase buffer to prepare compound working solutions containing 5% DMSO. 1 µL of each concentration gradient working solution was added to a microplate, with duplicate wells set for each concentration. 2 µL of ALK enzyme (15 ng per well) and 2 µL of a mixture of substrate and ATP (25 µM ATP, 0.5 µg/µL SRC Substrate) were added to the microplate. […] The reaction system was placed at 25°C for 1 hour. After the reaction, 5 µL of ADP-Glo reagent was added to each well and reacted at 25°C for another 40 minutes. After the reaction, 10 µL of kinase detection reagent was added to each well and reacted at 25°C for 30 minutes. Chemiluminescence was then measured using the PerkinElmer Nivo multimode plate reader with an integration time of 0.5 seconds.
ALK (G1202R/L1196M) kinase inhibition assay method: The preparation method for the working solution of the test compound was the same as for the ALK kinase. […] The subsequent steps were the same as for ALK kinase.
(§4) The IC50 value could then be derived by performing a curve fit using a four-parameter logistic model (obtained using the "log(inhibitor) vs. response -- Variable slope" mode in GraphPad Prism).

ALK(G1202R) = biological target: T2, ALK(G1202R) (Homo sapiens, UniProt Q9UM73, G1202R); assay: as above; format: biochemical; settings: final ATP 50 µM, read-out: Kinase half maximal inhibitory concentration IC50 ALK^G1202R
T2 construct: purchased Carna
T2 sequence (Q9UM73 19-1620 G1202R): as the sequence (Q9UM73 19-1620 L1196M/G1202R) above, with M1178L counted along it
Method: as §1, §2, §3
ALK (G1202R) kinase inhibition assay method: The preparation method for the working solution of the test compound was the same as for the ALK kinase. […] The subsequent steps were the same as for ALK kinase.
as §4

TRKB [2] = biological target: T3, TRKB (Homo sapiens, UniProt Q16620); assay: as above; format: biochemical; settings: read-out: Kinase half maximal inhibitory concentration IC50 TRKB
T3 construct: purchased Carna
T3 sequence (Q16620 32-822): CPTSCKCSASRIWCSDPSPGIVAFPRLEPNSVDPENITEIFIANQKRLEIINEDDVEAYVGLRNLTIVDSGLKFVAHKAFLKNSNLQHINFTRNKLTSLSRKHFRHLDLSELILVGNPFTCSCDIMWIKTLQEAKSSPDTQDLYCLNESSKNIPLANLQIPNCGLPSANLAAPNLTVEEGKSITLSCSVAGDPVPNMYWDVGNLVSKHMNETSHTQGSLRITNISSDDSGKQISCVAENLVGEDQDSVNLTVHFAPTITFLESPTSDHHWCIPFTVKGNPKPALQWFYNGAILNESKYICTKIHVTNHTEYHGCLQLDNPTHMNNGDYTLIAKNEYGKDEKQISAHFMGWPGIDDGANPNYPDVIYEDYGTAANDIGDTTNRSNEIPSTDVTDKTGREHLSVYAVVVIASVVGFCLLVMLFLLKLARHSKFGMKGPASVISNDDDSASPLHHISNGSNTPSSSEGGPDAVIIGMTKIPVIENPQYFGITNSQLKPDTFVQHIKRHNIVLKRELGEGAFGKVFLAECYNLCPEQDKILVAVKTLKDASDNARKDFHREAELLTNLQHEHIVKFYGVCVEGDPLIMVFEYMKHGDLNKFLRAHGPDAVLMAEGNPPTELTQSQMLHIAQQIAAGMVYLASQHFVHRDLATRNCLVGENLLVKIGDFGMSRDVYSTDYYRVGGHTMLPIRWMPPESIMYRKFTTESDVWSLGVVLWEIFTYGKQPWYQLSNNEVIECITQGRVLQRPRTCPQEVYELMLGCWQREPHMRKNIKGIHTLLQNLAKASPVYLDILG
Method: as §1, §2, §3
TRKB kinase inhibition assay method: The preparation method for the working solution of the test compound was the same as for the ALK kinase. 2 µL of TRKB (0.5 ng per well) and 4 µL of a mixture of substrate and ATP (5 µM ATP, 0.5 µM SRC Substrate) were added to the microplate. […] The subsequent steps were the same as for ALK kinase.
as §4

TRKB [3] = biological target: T3, TRKB; assay: In vitro kinase inhibitory activity assay, Experimental method 2 (ADP-Glo); format: biochemical
Method: as §1
(§5) Experimental materials: ALK (G1202R/L1196M) Active and TRKB were purchased from Carna; IGF1 was purchased from GenScript; PolyE4Y1 was purchased from SIGMA; ADP-Glo™ Reagent was purchased from Promega; ATP was purchased from Promega; Kinase Detection Reagent was purchased from Promega; microplate reader ( PerkinElmer).
TRKB reaction concentration 4.47 nM, ATP concentration 5.0 µM, substrate PolyE4Y1 concentration 0.2 µg/µL. TRKB kinase buffer was 40 mM Tris-HCl (pH 7.5) + 20 mM magnesium chloride + 2.5 mM manganese chloride + 0.1mg/mL BSA+ 50 µM DTT.
(§6) ALK(G1202R/L1196M) and TRKB detection method: 2 µL of kinase and 1 µL of compound were added to a 384-well plate; 2 µL of substrate/ATP mixture was added and incubated at room temperature in the dark for 60 minutes; 5 µL of ADP-Glo™ reagent was added and incubated at room temperature for 40 minutes; 10 µL of kinase detection reagent was added and incubated at room temperature for 30 minutes; the plate was read on a microplate reader, and luminescence was recorded (integration time set to 0.5 seconds).
as §4

ALK(G1202R/L1196M) [4] = biological target: T1, ALK(G1202R/L1196M); assay: as above; format: biochemical
Method: as §1, §5
Reaction system: ALK(G1202R/L1196M) reaction concentration 8.63 nM, ATP concentration 5.0 µM, substrate IGF1 concentration 0.2 µg/µL. ALK(G1202R/L1196M) kinase buffer was 40 mM Tris-HCl (pH 7.5) + 20 mM magnesium chloride + 0.1 mg/mL BSA + 50 µM DTT.
as §6, §4

Ba/F3-TEL-TRKB = assay: Anti-proliferative activity test on Ba/F3 cell lines (CellTiter-Glo); format: cell-based; settings: Mus musculus, BaF3; 72 hours; read-out: Half maximal inhibitory concentration IC50 for cells Ba/F3-TEL-TRKB
Method: (§7) • (1) Cell culture: The cell lines were cultured in an incubator at 37°C with 5% CO2. Regular passaging was performed, and cells in the logarithmic growth phase were selected for plating; • (2) Preparation of compound storage plate: The test compounds were prepared into a 10 mM solution with DMSO (Stock Con.); The compounds were then prepared into a 1 mM solution with DMSO (Work Con.); 1 µL of the stock solution was mixed with 9 µL of DMSO to prepare a 10 µL work solution. • (3) Preparation of 1000× compound storage plate (tube): The compounds were 3-fold serially diluted from […] to the lowest concentration, for a total of 8 concentrations; • (4) Preparation of 20× compound working solution: 98 µL of cell culture medium was added to a flat-bottomed 96-well transparent drug plate. From the 1000× compound storage plate, 2 µL of the compound was pipetted into the cell culture medium in the 96-well transparent drug plate. In the solvent control, 2 µL of DMSO was added. After the compound or DMSO was added, the mixture was homogenized using a pipette. • (5) Cells were stained with trypan blue and viable cells were counted to ensure a cell viability of 90% or more. The cell concentration was adjusted to an appropriate concentration; • (6) 95 µL of cell suspension (2000 cells/well) was added to each well of the compound assay cell plate, and cell-free culture medium containing 0.1% DMSO was added to the Min control wells; • (7) Administration in the compound assay cell plate: 5 µL of 20× compound working solution was added to the cell culture plate, 5 µL of DMSO-cell culture medium mixture was added to the Max control wells, and the final concentration of DMSO was 0.1%; • (8) The culture plate was then incubated in an incubator at 37°C with 5% CO2 for 72 hours; • (9) The following operations were conducted in accordance with the instructions of the Promega CellTiter-Glo Luminescent Cell Viability Assay Kit (Promega-G7573): CellTiter-Glo buffer was thawed and brought to room temperature; CellTiter-Glo substrate was brought to room temperature; CellTiter-Glo buffer was added to a bottle of CellTiter-Glo substrate to dissolve the substrate, thereby preparing CellTiter-Glo working solution; The mixture was slowly vortexed and shaken to be fully dissolved; The cell culture plate was removed and allowed to equilibrate to room temperature for 10 minutes; 50 µL (equal to half the volume of cell culture medium in each well) of CellTiter-Glo working solution was added to each well; The culture plate was shaken on an orbital shaker for 2 minutes to induce cell lysis; The plate was then left at room temperature for 10 minutes to stabilize the luminescent signal; The luminescent signal was detected using a SpectraMax Paradigm plate reader; Cell viability assay was conducted using CellTiter-Glo luminescence method.
(§8) Data analysis: The corresponding […] value (RLU) for each well was obtained from SpectraMax Paradigm readings. […] The inhibition rates corresponding to compounds at different concentrations were calculated in Excel, and the inhibition rate curves were plotted using GraphPad Prism software to calculate relevant parameters, including the maximum and minimum inhibition rates of the cells and the IC50 value.

[5] = system: Ba/F3-EML4-ALK-G1202R/L1196M; assay: as above; format: cell-based; settings: Ba/F3 EML4-ALK-G1202R-L1196M; 72 hours; read-out: Half maximal inhibitory concentration IC50 for cells Ba/F3-EML4-ALK-G1202R/L1196 M
Method: as §7, §8

[6] = Experimental method 2, ATP 5.0 µM, substrate PolyE4Y1, read-out: Kinase half maximal inhibitory concentration IC50 TRKB
[7] = Experimental method 2, ATP 5.0 µM, substrate IGF1, read-out: Kinase half maximal inhibitory concentration IC50 ALK^G1202R/L1196M

Compound	IC50 (ALK(G1202R/L1196M) [1]) [nM]	IC50 (TRKB [3]; [6]) [nM]	IC50 (ALK(G1202R/L1196M) [4]; [7]) [nM]	other results
CCON=C1NC(C)(C)COc2ccc(F)cc2CN2c3nc4c1cnn4cc3OC[C@H]2C(F)F [Compound 002]	14.6			IC50 (ALK(G1202R)): 27.8 nM
COCCON=C1NC(C)(C)COc2ccc(F)cc2CN2c3nc4c1cnn4cc3OC[C@H]2C(F)F [Compound 003]	11.3			IC50 (ALK(G1202R)): 12.2 nM
CC1(C)COc2ncc(F)cc2CN2c3nc4c(cnn4cc3OC[C@H]2C(F)F)C(=S)N1 [Compound 004]	1.3			IC50 (TRKB [2]): 2.4 nM
Cc1nn2cc3c4nc2c1C(=O)NC(C)(C)COc1ccc(F)cc1CN4[C@H](C(F)F)CO3 [Compound 006]		1.2	0.6	
CC1(C)COc2ccc(F)cc2CN2c3nc4c(cc3OC[C@H]2C(F)F)ncn4C(=O)N1 [Compound 007]				IC50 (TRKB [3]): 2.6 nM; IC50 (ALK(G1202R/L1196M) [4]): 1 nM
CC1(C)COc2ccc(F)cc2CN2c3nc4c(cc3OC[C@H]2C(F)F)ncn4C(=S)N1 [Compound 008]		7.8	1.7	
CC1(C)COc2ccc(F)cc2CN2c3nc4c(c(Br)nn4cc3OC[C@H]2C(F)F)C(=O)N1 [Compound 009]		2	0.8	IC50 (Ba/F3-TEL-TRKB): 7.8 nM; IC50 [5]: 7.3 nM
CC1(C)COc2ccc(F)cc2CN2c3nc4c(c(C#N)nn4cc3OC[C@H]2C(F)F)C(=O)N1 [Compound 010]		4.4	1.5	
